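Test compounds were applied to cells in 96-well plates for 48 hours at 5 doses. GI50 = concentration required for 50% inhibition of growth.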 Calls of active or inactive are those of the source. Rule as the data show it: active = GI50 up to about 1.1 µM and inactive = higher.
Tests used:
Experiment in all cases: NCI-60 cell line screen, 48 h
[1] = test system: NCI-H460
[2] = test system: A549
[3] = test system: MDA-MB-231
[4] = test system: KM12
[5] = test system: T47D
[6] = test system: NCI-H23
[7] = test system: SK-OV-3
[8] = test system: M14
[9] = test system: OVCAR-4
[10] = test system: OVCAR-3
[11] = test system: K562
[12] = test system: SW-620
[13] = test system: SR
[14] = test system: SF-539
[15] = test system: OVCAR-8
[16] = test system: HT-29
[17] = test system: MOLT-4
[18] = test system: HOP-92
[19] = test system: TK-10
[20] = test system: HCT-116
[21] = test system: EKVX
[22] = test system: NCI-H522
[23] = test system: HOP-62
[24] = test system: NCI-H226
[25] = test system: A498
[26] = test system: IGROV-1
[27] = test system: LOX IMVI
[28] = test system: UACC-257
[29] = test system: SNB-19
[30] = test system: UACC-62
[31] = test system: MDA-N
[32] = test system: SK-MEL-2
[33] = test system: BT-549
[34] = test system: OVCAR-5
[35] = test system: PC-3
[36] = test system: HCT-15
[37] = test system: Malme-3M
[38] = test system: CAKI-1
[39] = test system: NCI/ADR-RES
[40] = test system: MCF7
[41] = test system: MDA-MB-435
[42] = test system: UO-31
[43] = test system: Hs-578T
[44] = test system: SK-MEL-5
[45] = test system: DU-145
[46] = test system: SF-295
[47] = test system: SK-MEL-28
[48] = test system: CCRF-CEM
[49] = test system: SN12C
[50] = test system: HCC 2998
[51] = test system: SF-268
[52] = test system: ACHN
[53] = test system: 786-0
[54] = test system: U-251
[55] = test system: SNB-75
[56] = test system: RPMI-8226
[57] = test system: COLO 205
[58] = test system: HL-60
[59] = test system: RXF 393

CNn1c(-c2ccccc2)n[nH]c1=O
GI50 [1]: > 100 µM (inactive)
GI50 [2]: > 100 µM (inactive)
GI50 [3]: > 100 µM (inactive)
GI50 [4]: > 100 µM (inactive)
GI50 [5]: > 100 µM (inactive)
GI50 [6]: > 100 µM (inactive)
GI50 [7]: > 100 µM (inactive)
GI50 [8]: > 100 µM (inactive)
GI50 [9]: > 100 µM (inactive)
GI50 [10]: > 100 µM (inactive)
GI50 [11]: > 100 µM (inactive)
GI50 [12]: > 100 µM (inactive)
GI50 [13]: > 100 µM (inactive)
GI50 [14]: > 100 µM (inactive)
GI50 [15]: > 100 µM (inactive)
GI50 [16]: > 100 µM (inactive)
GI50 [17]: > 100 µM (inactive)
GI50 [18]: > 100 µM (inactive)
GI50 [19]: > 100 µM (inactive)
GI50 [20]: > 100 µM (inactive)
GI50 [21]: > 100 µM (inactive)
GI50 [22]: > 100 µM (inactive)
GI50 [23]: > 100 µM (inactive)
GI50 [24]: > 100 µM (inactive)
GI50 [25]: > 100 µM (inactive)
GI50 [26]: > 100 µM (inactive)
GI50 [27]: > 100 µM (inactive)
GI50 [28]: > 100 µM (inactive)
GI50 [29]: > 100 µM (inactive)
GI50 [30]: > 100 µM (inactive)
GI50 [31]: > 100 µM (inactive)
GI50 [32]: > 100 µM (inactive)
GI50 [33]: > 100 µM (inactive)
GI50 [34]: > 100 µM (inactive)
GI50 [35]: > 100 µM (inactive)
GI50 [36]: > 100 µM
GI50 [37]: > 100 µM (inactive)
GI50 [38]: > 100 µM (inactive)
GI50 [39]: > 100 µM (inactive)
GI50 [40]: > 100 µM (inactive)
GI50 [41]: > 100 µM (inactive)
GI50 [42]: > 100 µM (inactive)
GI50 [43]: > 100 µM (inactive)
GI50 [44]: > 100 µM (inactive)
GI50 [45]: > 100 µM (inactive)
GI50 [46]: > 100 µM (inactive)
GI50 [47]: > 100 µM (inactive)
GI50 [48]: > 100 µM (inactive)
GI50 [49]: > 100 µM (inactive)
GI50 [50]: > 100 µM (inactive)
GI50 [51]: > 100 µM (inactive)
GI50 [52]: > 100 µM (inactive)
GI50 [53]: > 100 µM (inactive)
GI50 [54]: > 100 µM (inactive)
GI50 [55]: > 100 µM (inactive)
GI50 [56]: > 100 µM (inactive)
GI50 [57]: > 100 µM (inactive)
GI50 [58]: > 100 µM (inactive)

c1ccc(-c2cc(C3CO3)c3ccccc3n2)cc1 (stereo unspecified)
GI50 [1]: 18.8 µM (inactive)
GI50 [2]: 20.1 µM (inactive)
GI50 [3]: 23.3 µM (inactive)
GI50 [4]: 17.5 µM (inactive)
GI50 [5]: 18.9 µM (inactive)
GI50 [6]: 19.1 µM (inactive)
GI50 [7]: 35 µM (inactive)
GI50 [8]: 18.9 µM (inactive)
GI50 [9]: 21.5 µM (inactive)
GI50 [10]: 17.9 µM (inactive)
GI50 [11]: 34.4 µM (inactive)
GI50 [12]: 27.9 µM (inactive)
GI50 [13]: 18.3 µM (inactive)
GI50 [14]: 21.2 µM (inactive)
GI50 [15]: 20 µM (inactive)
GI50 [16]: 19.4 µM (inactive)
GI50 [17]: 23.7 µM (inactive)
GI50 [18]: 20 µM (inactive)
GI50 [19]: 21.6 µM (inactive)
GI50 [20]: 16.5 µM (inactive)
GI50 [21]: 18.2 µM (inactive)
GI50 [22]: 3.99 µM (inactive)
GI50 [23]: 26.5 µM (inactive)
GI50 [59]: 13.5 µM (inactive)
GI50 [24]: 19.1 µM (inactive)
GI50 [25]: 19.7 µM (inactive)
GI50 [26]: 17.9 µM (inactive)
GI50 [27]: 18.6 µM (inactive)
GI50 [28]: 19.1 µM (inactive)
GI50 [29]: 29.1 µM (inactive)
GI50 [30]: 18.5 µM (inactive)
GI50 [31]: 19.1 µM (inactive)
GI50 [32]: 18.4 µM (inactive)
GI50 [33]: 20.7 µM (inactive)
GI50 [34]: 22 µM (inactive)
GI50 [35]: 19.5 µM (inactive)
GI50 [36]: 19.5 µM
GI50 [38]: 22.5 µM (inactive)
GI50 [39]: 24.3 µM (inactive)
GI50 [40]: 16.2 µM (inactive)
GI50 [41]: 18.9 µM (inactive)
GI50 [42]: 1.52 µM (inactive)
GI50 [43]: 29.3 µM (inactive)
GI50 [44]: 16.7 µM (inactive)
GI50 [45]: 16.9 µM (inactive)
GI50 [46]: 35.2 µM (inactive)
GI50 [47]: 38.5 µM (inactive)
GI50 [48]: 29.6 µM (inactive)
GI50 [49]: 16.3 µM (inactive)
GI50 [50]: 20 µM (inactive)
GI50 [51]: 20 µM (inactive)
GI50 [52]: 18.4 µM (inactive)
GI50 [53]: 15.5 µM (inactive)
GI50 [54]: 16 µM (inactive)
GI50 [55]: 25.9 µM (inactive)
GI50 [56]: 21.9 µM (inactive)
GI50 [57]: 19.7 µM (inactive)
GI50 [58]: 26.9 µM (inactive)

From ChEMBL document CHEMBL1201862, “PubChem BioAssay data set” (2004)
